Laboratory results: patent US6737383B1, “Herbicidal oxadiazolidines” (priority 1999, dated 2004)

How the values were obtained:
[1] = test system: purple nutsedge; test: Test B pre/postemergence purple nutsedge; type: in vivo, Cyperus rotundus
In short: (§1)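 Test chemicals in a non-phytotoxic solvent mixture with surfactant were sprayed preemergence onto planted seeds and postemergence onto plants 2 to 18 cm tall (1- to 4-leaf stage). After twelve to sixteen days in a greenhouse, injury was visually rated against untreated controls from 0 (no effect) to 10 (complete control).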

[2] = test system: cocklebur; test: Test B pre/postemergence cocklebur; type: in vivo, Xanthium strumarium
In short: as §1

[3] = test system: sugar beet; test: Test B pre/postemergence sugar beet; type: in vivo, Beta vulgaris
In short: as §1

[4] = test system: soybean; test: Test B pre/postemergence soybean; type: in vivo, Glycine max
In short: as §1

[5] = test system: crabgrass; test: Test B pre/postemergence crabgrass; type: in vivo, Digitaria sanguinalis
In short: as §1

[6] = test system: pigweed; test: Test B pre/postemergence pigweed; type: in vivo, Amaranthus retroflexus
In short: as §1

[7] = test system: bedstraw; test: Test B pre/postemergence bedstraw; type: in vivo, Galium aparine; conditions: Preemergence
In short: as §1

[8] = test system: rape; test: Test B pre/postemergence rape; type: in vivo, Brassica napus
In short: as §1

[9] = test system: morningglory; test: Test B pre/postemergence morningglory; type: in vivo, Ipomoea hederacea
In short: as §1

[10] = test system: corn; test: Test B pre/postemergence corn; type: in vivo, Zea mays
In short: as §1

[11] = test system: giant foxtail; test: Test B pre/postemergence giant foxtail; type: in vivo, Setaria faberii
In short: as §1

[12] = test system: wheat; test: Test B pre/postemergence wheat; type: in vivo, Triticum aestivum
In short: as §1

[13] = test system: wild oat; test: Test B pre/postemergence wild oat; type: in vivo, Avena fatua
In short: as §1

[14] = test system: velvetleaf; test: Test B pre/postemergence velvetleaf; type: in vivo, Abutilon theophrasti
In short: as §1

[15] = test system: surinam grass; test: Test B pre/postemergence surinam grass; type: in vivo, Brachiaria decumbens
In short: as §1

[16] = test system: blackgrass; test: Test B pre/postemergence blackgrass; type: in vivo, Alopecurus myosuroides
In short: as §1

[17] = Postemergence, Rate 500 g/ha, scale 0 to 10, 0 is no effect, 10 is complete control
[18] = Postemergence, Rate 62 g/ha, scale of 0 to 10, 0 is no effect, 10 is complete control
[19] = Postemergence, Rate 125 g/ha, scale 0 to 10, 0 is no effect, 10 is complete control
[20] = Postemergence, Rate 250 g/ha, scale 0 to 10
[21] = Preemergence, Rate 62 g/ha, scale of 0 to 10 where 0 is no effect and 10 is complete control
[22] = Preemergence, Rate 125 g/ha, scale 0 to 10, 0 is no effect, 10 is complete control
[23] = Preemergence, Rate 250 g/ha, scale 0 to 10, 0 is no effect, 10 is complete control
[24] = Preemergence, Rate 500 g/ha, scale of 0 to 10 where 0 is no effect and 10 is complete control
[25] = Rate 125 g/ha, scale 0 to 10, 0 is no effect, 10 is complete control
[26] = Preemergence, Rate 62 g/ha, scale 0 to 10 (0 no effect, 10 complete control)
[27] = Rate 250 g/ha, Postemergence, scale of 0 to 10 where 0 is no effect and 10 is complete control
[28] = Postemergence, Rate 500 g/ha, scale of 0 to 10 where 0 is no effect and 10 is complete control

CC(C)N(C(=O)n1oc(=O)n(CCc2ccccc2)c1=O)c1ccc(F)cc1F [Compound 508]
6: Sugarbeets plant response rating [3, 24] | Plant response rating, Crabgrass [5, 21] | Blackgrass plant response rating [16, 20] | Plant response rating, Blackgrass [16, 17]
2: Wheat plant response rating [12, 24] | Plant response rating, Velvetleaf [14, 17]
4: Cocklebur plant response rating [2, 20] | Plant response rating, Cocklebur [2, 17] | Soybean plant response rating [4, 18] | Soybean plant response rating [4, 19] | Corn plant response rating [10, 24] | Plant response rating, Wild oats [13, 17] | Wild oats plant response rating [13, 22] | Plant response rating, B. signalgrass [15, 21]
10: Crabgrass plant response rating [5, 24] | Redroot pigweed plant response rating [6, 24] | Plant response rating, Giant foxtail [11, 21] | Giant foxtail plant response rating [11, 22] | Giant foxtail plant response rating [11, 24]
1: Cocklebur plant response rating [2, 19] | Sugarbeets plant response rating [3, 19] | Plant response rating, Sugarbeets [3, 21] | Sugarbeets plant response rating [3, 22] | Rape plant response rating [8, 18] | Velvetleaf plant response rating [14, 19] | Plant response rating, Blackgrass [16, 21]
3: Redroot pigweed plant response rating [6, 18] | Rape plant response rating [8, 24] | Morningglory plant response rating [9, 18] | Morningglory plant response rating [9, 19] | Plant response rating, Corn [10, 17] | Plant response rating, Wild oats [13, 21] | B. signalgrass plant response rating ([15]; Postemergence, Rate 250 g/ha, scale 0 to 10, 0 no effect, 10 complete control) | Plant response rating, B. signalgrass [15, 17] | Blackgrass plant response rating [16, 19] | Blackgrass plant response rating [16, 22]
7: Redroot pigweed plant response rating [6, 19] | Plant response rating, Redroot pigweed [6, 21] | Plant response rating, Morningglory [9, 17] | Wild oats plant response rating [13, 24] | B. signalgrass plant response rating [15, 22]
8: Redroot pigweed plant response rating [6, 22] | Plant response rating, Rape [8, 17] | Giant foxtail plant response rating [11, 18] | Giant foxtail plant response rating [11, 19] | Plant response rating, Giant foxtail [11, 17] | B. signalgrass plant response rating [15, 23] | B. signalgrass plant response rating ([15]; Preemergence, Rate 500 g/ha, scale 0 to 10, 0 is no effect, 10 is complete control) | Blackgrass plant response rating [16, 24]
0: Plant response rating, Nutsedge [1, 17] | Cocklebur plant response rating [2, 18] | Plant response rating, Cocklebur [2, 21] | Cocklebur plant response rating [2, 22] | Cocklebur plant response rating [2, 23] | Cocklebur plant response rating [2, 24] | Sugarbeets plant response rating [3, 18] | Plant response rating, Soybean [4, 21] | Soybean plant response rating [4, 22] | Soybean plant response rating [4, 24] | Plant response rating, Bedstraw ([7]; Rate 62 g/ha, scale of 0 to 10 where 0 is no effect and 10 is complete control) | Bedstraw plant response rating [7, 25] | Bedstraw plant response rating ([7]; Rate 250 g/ha, scale 0 to 10, 0 is no effect, 10 is complete control) | Bedstraw plant response rating ([7]; Rate 500 g/ha, scale 0 to 10, 0 is no effect, 10 is complete control) | Plant response rating, Rape [8, 21] | Rape plant response rating [8, 22] | Plant response rating, Morningglory [9, 21] | Morningglory plant response rating [9, 22] | Morningglory plant response rating [9, 24] | Corn plant response rating [10, 18] | Corn plant response rating [10, 19] | Corn plant response rating [10, 20] | Plant response rating, Corn [10, 21] | Corn plant response rating [10, 22] | Wheat plant response rating [12, 18] | Wheat plant response rating [12, 19] | Plant response rating, Wheat [12, 17] | Plant response rating, Wheat [12, 21] | Wheat plant response rating [12, 22] | Wild oats plant response rating [13, 18] | Wild oats plant response rating [13, 19] | Velvetleaf plant response rating [14, 18] | Plant response rating, Velvetleaf [14, 21] | Velvetleaf plant response rating [14, 22] | Velvetleaf plant response rating [14, 24] | B. signalgrass plant response rating [15, 18] | B. signalgrass plant response rating [15, 19] | Blackgrass plant response rating [16, 18]
5: Plant response rating, Soybean [4, 17] | Rape plant response rating [8, 19] | Blackgrass plant response rating [16, 23]
9: Plant response rating, Sugarbeets [3, 17] | Crabgrass plant response rating [5, 18] | Crabgrass plant response rating [5, 19] | Crabgrass plant response rating [5, 20] | Plant response rating, Crabgrass [5, 17] | Crabgrass plant response rating [5, 22] | Plant response rating, Redroot pigweed [6, 17]

CC(Cl)=CCn1c(=O)on(C(=O)N(c2ccccc2)C(C)C)c1=O [Compound 573]
4: Plant response rating, Soybean [4, 27] | Plant response rating, Redroot pigweed [6, 27] | Morningglory plant response rating [9, 24]
7: Plant response rating, Redroot pigweed [6, 28] | B. signalgrass plant response rating [15, 26] | B. signalgrass plant response rating [15, 22]
3: Plant response rating, Cocklebur [2, 28] | Crabgrass plant response rating [5, 26] | Rape plant response rating (0 to 10 scale) ([8]; Preemergence, Rate 250 g/ha) | Rape plant response rating [8, 24] | Plant response rating, Rape [8, 27] | Corn plant response rating [10, 24] | Giant foxtail plant response rating [11, 19] | Velvetleaf plant response rating [14, 24]
10: Crabgrass plant response rating [5, 24] | Morningglory plant response rating [9, 18] | Morningglory plant response rating [9, 19] | Plant response rating, Morningglory [9, 28] | Plant response rating, Morningglory [9, 27] | Giant foxtail plant response rating [11, 24] | B. signalgrass plant response rating [15, 24]
6: Plant response rating, Soybean [4, 28] | Crabgrass plant response rating [5, 18] | Blackgrass plant response rating [16, 24]
0: Nutsedge plant response rating [1, 18] | Nutsedge plant response rating [1, 19] | Nutsedge plant response rating [1, 26] | Nutsedge plant response rating [1, 22] | Nutsedge plant response rating (0 to 10 scale) ([1]; Preemergence, Rate 250 g/ha) | Nutsedge plant response rating [1, 24] | Plant response rating, Nutsedge [1, 27] | Cocklebur plant response rating [2, 18] | Cocklebur plant response rating [2, 19] | Cocklebur plant response rating [2, 26] | Cocklebur plant response rating [2, 22] | Cocklebur plant response rating (0 to 10 scale) ([2]; Preemergence, Rate 250 g/ha) | Cocklebur plant response rating [2, 24] | Sugarbeets plant response rating [3, 26] | Plant response rating, Sugarbeets [3, 27] | Soybean plant response rating [4, 26] | Soybean plant response rating [4, 22] | Soybean plant response rating (0 to 10 scale) ([4]; Preemergence, Rate 250 g/ha) | Soybean plant response rating [4, 24] | Redroot pigweed plant response rating [6, 26] | Redroot pigweed plant response rating [6, 22] | Bedstraw plant response rating ([7]; Rate 62 g/ha, scale 0 to 10 (0 no effect, 10 complete control)) | Bedstraw plant response rating [7, 25] | Bedstraw plant response rating (0 to 10 scale) ([7]; Rate 250 g/ha) | Bedstraw plant response rating ([7]; Rate 500 g/ha, scale of 0 to 10 where 0 is no effect and 10 is complete control) | Rape plant response rating [8, 18] | Morningglory plant response rating [9, 26] | Morningglory plant response rating [9, 22] | Morningglory plant response rating (0 to 10 scale) ([9]; Preemergence, Rate 250 g/ha) | Corn plant response rating [10, 18] | Corn plant response rating [10, 19] | Plant response rating, Corn [10, 28] | Corn plant response rating [10, 26] | Corn plant response rating [10, 22] | Corn plant response rating (0 to 10 scale) ([10]; Preemergence, Rate 250 g/ha) | Plant response rating, Corn [10, 27] | Plant response rating, Wheat [12, 28] | Wheat plant response rating [12, 26] | Wheat plant response rating [12, 22] | Wheat plant response rating (0 to 10 scale) ([12]; Preemergence, Rate 250 g/ha) | Wheat plant response rating [12, 24] | Plant response rating, Wheat [12, 27] | Plant response rating, Wild oats [13, 28] | Wild oats plant response rating [13, 26] | Wild oats plant response rating [13, 22] | Wild oats plant response rating (0 to 10 scale) ([13]; Preemergence, Rate 250 g/ha) | Wild oats plant response rating [13, 24] | Plant response rating, Wild oats [13, 27] | Velvetleaf plant response rating [14, 26] | Velvetleaf plant response rating [14, 22] | Velvetleaf plant response rating (0 to 10 scale) ([14]; Preemergence, Rate 250 g/ha) | Plant response rating, Velvetleaf [14, 27] | B. signalgrass plant response rating [15, 18] | B. signalgrass plant response rating [15, 19] | Plant response rating, B. signalgrass [15, 28] | Plant response rating, B. signalgrass [15, 27] | Blackgrass plant response rating [16, 18] | Blackgrass plant response rating [16, 19] | Plant response rating, Blackgrass [16, 28] | Blackgrass plant response rating [16, 26] | Blackgrass plant response rating [16, 22] | Plant response rating, Blackgrass [16, 27]
9: Crabgrass plant response rating [5, 19] | Plant response rating, Crabgrass [5, 28] | Crabgrass plant response rating [5, 22] | Crabgrass plant response rating (0 to 10 scale) ([5]; Preemergence, Rate 250 g/ha) | Plant response rating, Crabgrass [5, 27] | Redroot pigweed plant response rating (0 to 10 scale) ([6]; Preemergence, Rate 250 g/ha) | Redroot pigweed plant response rating [6, 24] | Plant response rating, Giant foxtail [11, 28] | Giant foxtail plant response rating [11, 26] | Giant foxtail plant response rating [11, 22] | Giant foxtail plant response rating (0 to 10 scale) ([11]; Preemergence, Rate 250 g/ha) | Plant response rating, Giant foxtail [11, 27] | B. signalgrass plant response rating (0 to 10 scale, 0 is no effect, 10 is complete control) ([15]; Preemergence, Rate 250 g/ha)
2: Plant response rating, Cocklebur [2, 27] | Sugarbeets plant response rating [3, 22] | Sugarbeets plant response rating (0 to 10 scale) ([3]; Preemergence, Rate 250 g/ha) | Sugarbeets plant response rating [3, 24] | Rape plant response rating [8, 19] | Plant response rating, Rape [8, 28] | Rape plant response rating [8, 26] | Rape plant response rating [8, 22] | Giant foxtail plant response rating [11, 18] | Plant response rating, Velvetleaf [14, 28] | Blackgrass plant response rating (0 to 10 scale) ([16]; Preemergence, Rate 250 g/ha)
